Results from patent US20250236608A1, “EGFR INHIBITORS” (Blueprint Medicines Corporation, priority 2022, published 2025).

Legend:
[1] = molecular target: EGFR L858R (Homo sapiens (Human), UniProt P00533, L858R); assay: Biochemical EGFR inhibition assay, EGFR L858R; conditions: Caliper mobility shift; 1.0 mM ATP or ATP Km; read-out: Enz EGFR_L858R IC50
[2] = molecular target: pEGFR (Tyr1068) in PC-9 cells (Ex19Del) (Homo sapiens (Human), UniProt P00533, DEL746-750); assay: PC-9 pEGFR AlphaLISA assay; format: cell-based; conditions: 4 hours incubation, p-EGFR (Tyr1068) AlphaLISA, read-out: Ext pEGFR_PC-9 Ex19Del IC50
Procedure, shortened: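 PC-9 cells seeded overnight in phenol-free DMEM with 10% FBS, then treated 4 h at 37°C with a 10-point, 4-fold compound series. Lysates assayed for pEGFR Tyr1068 by AlphaLISA SureFire; IC50 from % inhibition vs log concentration.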

[3] = molecular target: EGFR (d746-750) (Homo sapiens (Human), UniProt P00533, DEL746-750); assay: Biochemical EGFR inhibition assay, EGFR (d746-750); conditions: Caliper mobility shift; 1.0 mM ATP or ATP Km; read-out: Enz EGFR_Exon19-del746-750 IC50
Chain of EGFR (d746-750) (P00533 other isoform, or with tags, fused parts or gaps del 1-694/del 746-750 limits assumed): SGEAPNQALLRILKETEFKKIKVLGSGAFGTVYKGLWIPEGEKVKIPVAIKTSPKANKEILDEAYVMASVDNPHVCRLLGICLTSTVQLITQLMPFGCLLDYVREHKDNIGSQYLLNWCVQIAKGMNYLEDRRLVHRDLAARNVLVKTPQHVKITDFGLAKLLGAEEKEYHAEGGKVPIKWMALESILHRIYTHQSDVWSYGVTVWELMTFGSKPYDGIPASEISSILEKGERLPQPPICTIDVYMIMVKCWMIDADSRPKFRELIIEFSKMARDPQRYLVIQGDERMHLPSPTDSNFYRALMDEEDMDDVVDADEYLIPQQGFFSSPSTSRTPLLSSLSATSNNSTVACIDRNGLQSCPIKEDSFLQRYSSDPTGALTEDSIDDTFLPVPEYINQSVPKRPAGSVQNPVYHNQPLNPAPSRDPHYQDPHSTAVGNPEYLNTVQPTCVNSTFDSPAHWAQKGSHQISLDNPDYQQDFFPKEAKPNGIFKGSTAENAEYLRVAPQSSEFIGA

Chain of pEGFR (Tyr1068) in PC-9 cells (Ex19Del) (P00533 other isoform, or with tags, fused parts or gaps del 746-750): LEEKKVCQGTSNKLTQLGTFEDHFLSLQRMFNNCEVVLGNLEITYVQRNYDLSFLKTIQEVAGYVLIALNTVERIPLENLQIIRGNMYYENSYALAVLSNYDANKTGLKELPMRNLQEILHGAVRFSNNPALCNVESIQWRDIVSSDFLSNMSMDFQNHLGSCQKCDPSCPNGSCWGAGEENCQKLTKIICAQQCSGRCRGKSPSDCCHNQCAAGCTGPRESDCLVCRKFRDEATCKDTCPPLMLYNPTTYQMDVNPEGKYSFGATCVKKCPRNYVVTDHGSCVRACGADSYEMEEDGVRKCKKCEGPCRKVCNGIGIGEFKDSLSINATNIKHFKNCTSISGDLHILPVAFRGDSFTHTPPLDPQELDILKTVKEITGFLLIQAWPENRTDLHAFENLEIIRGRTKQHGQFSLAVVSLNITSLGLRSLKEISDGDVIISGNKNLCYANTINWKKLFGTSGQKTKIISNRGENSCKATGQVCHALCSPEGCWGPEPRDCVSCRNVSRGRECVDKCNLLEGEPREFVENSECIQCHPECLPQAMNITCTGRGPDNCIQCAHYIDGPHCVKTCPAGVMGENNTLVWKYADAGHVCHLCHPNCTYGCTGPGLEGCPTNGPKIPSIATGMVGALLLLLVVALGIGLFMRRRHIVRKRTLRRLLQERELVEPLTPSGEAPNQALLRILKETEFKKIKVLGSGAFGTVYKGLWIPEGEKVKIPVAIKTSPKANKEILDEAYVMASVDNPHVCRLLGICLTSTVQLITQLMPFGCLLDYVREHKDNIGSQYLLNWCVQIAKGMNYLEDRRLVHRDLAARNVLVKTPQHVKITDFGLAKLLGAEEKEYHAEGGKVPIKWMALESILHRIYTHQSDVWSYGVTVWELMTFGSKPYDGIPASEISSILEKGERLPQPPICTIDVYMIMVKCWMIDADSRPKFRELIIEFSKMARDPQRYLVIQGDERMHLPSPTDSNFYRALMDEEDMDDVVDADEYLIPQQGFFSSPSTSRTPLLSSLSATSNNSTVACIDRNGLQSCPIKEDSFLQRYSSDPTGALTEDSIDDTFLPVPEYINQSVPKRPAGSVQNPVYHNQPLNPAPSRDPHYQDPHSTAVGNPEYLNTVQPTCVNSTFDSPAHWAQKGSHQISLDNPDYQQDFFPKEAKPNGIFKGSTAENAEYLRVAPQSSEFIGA
Chain of EGFR L858R (P00533 25-1210 L858R): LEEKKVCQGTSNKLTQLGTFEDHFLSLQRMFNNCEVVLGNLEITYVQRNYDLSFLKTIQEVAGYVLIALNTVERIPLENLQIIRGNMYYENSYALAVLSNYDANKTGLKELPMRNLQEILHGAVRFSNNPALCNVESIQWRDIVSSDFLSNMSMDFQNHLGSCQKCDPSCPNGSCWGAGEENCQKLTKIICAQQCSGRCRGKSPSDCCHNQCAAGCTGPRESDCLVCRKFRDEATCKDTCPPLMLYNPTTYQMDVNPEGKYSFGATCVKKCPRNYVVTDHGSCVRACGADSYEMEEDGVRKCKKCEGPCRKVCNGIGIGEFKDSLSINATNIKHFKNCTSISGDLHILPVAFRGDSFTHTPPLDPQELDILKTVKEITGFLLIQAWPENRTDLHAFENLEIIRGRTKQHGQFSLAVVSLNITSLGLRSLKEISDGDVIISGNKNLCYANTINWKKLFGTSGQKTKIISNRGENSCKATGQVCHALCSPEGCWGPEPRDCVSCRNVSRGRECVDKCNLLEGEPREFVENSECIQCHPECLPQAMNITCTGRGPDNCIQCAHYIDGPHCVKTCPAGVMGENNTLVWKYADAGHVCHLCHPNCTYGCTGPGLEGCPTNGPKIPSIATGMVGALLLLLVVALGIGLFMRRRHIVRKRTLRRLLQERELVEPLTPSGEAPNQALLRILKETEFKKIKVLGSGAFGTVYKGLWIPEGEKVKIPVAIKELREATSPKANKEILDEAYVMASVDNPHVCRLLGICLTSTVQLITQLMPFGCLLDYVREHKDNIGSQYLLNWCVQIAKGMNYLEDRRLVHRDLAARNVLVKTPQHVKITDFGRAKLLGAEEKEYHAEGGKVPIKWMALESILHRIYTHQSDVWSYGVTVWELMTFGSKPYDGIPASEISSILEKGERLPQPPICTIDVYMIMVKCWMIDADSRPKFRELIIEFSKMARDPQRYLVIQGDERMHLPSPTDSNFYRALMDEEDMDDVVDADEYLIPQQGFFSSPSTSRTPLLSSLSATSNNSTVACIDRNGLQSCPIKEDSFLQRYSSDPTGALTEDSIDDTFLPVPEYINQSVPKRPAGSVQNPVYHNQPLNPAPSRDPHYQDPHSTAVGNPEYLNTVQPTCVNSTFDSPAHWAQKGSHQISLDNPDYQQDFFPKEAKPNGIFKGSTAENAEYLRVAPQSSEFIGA

Row | Compound | IC50 [1] | IC50 [2] | IC50 [3]
1 | COc1cc2ncnc(-c3cn(C)nc3-c3ccccc3F)c2nc1NC(=O)[C@@]12COC[C@@H]1C2 (single isomer, unassigned) [Example 387, (1R,5R)—N-(4-(3-(2-fluorophenyl)-1-methyl-1H-pyrazol-4-yl)-7-methoxypyrido[3,2-d]pyrimidin-6-yl)-3-oxabicyclo[3.1.0]hexane-1-carboxamide or (1S,5S)—N-(4-(3-(2-fluorophenyl)-1-methyl-1H-pyrazol-4-yl)-7-methoxypyrido[3,2-d]pyrimidin-6-yl)-3-oxabicyclo[3.1.0]hexane-1-carboxamide] | 2 nM | 1.5 nM | 0.9 nM
2 | COc1cc2ncnc(-c3cn(C)nc3-c3ccccc3)c2nc1O[C@@H](C)c1nnc(C)s1 (single isomer, unassigned) [Example 51, (S)-2-(1-((7-methoxy-4-(1-methyl-3-phenyl-1H-pyrazol-4-yl)pyrido[3,2-d]pyrimidin-6-yl)oxy)ethyl)-5-methyl-1,3,4-thiadiazole or (R)-2-(1-((7-methoxy-4-(1-methyl-3-phenyl-1H-pyrazol-4-yl)pyrido[3,2-d]pyrimidin-6-yl)oxy)ethyl)-5-methyl-1,3,4-thiadiazole] | 6.9 nM | 30.6 nM | 5.3 nM
3 | COc1cc2ncnc(-c3cn(C)nc3-c3ccccc3)c2nc1O[C@@H](C)c1csc(C)n1 [Example 33, (S)-4-(1-((7-methoxy-4-(1-methyl-3-phenyl-1H-pyrazol-4-yl)pyrido[3,2-d]pyrimidin-6-yl)oxy)ethyl)-2-methylthiazole] | 1.1 nM | 0.8 nM | 0.7 nM
4 | COc1cc2ncnc(-c3cn(C)nc3-c3ccccc3)c2cc1NC(=O)[C@@]1(C)CCCO1 (single isomer, unassigned) [Example 259, (R)—N-(7-methoxy-4-(1-methyl-3-phenyl-1H-pyrazol-4-yl)quinazolin-6-yl)-2-methyltetrahydrofuran-2-carboxamide or (S)—N-(7-methoxy-4-(1-methyl-3-phenyl-1H-pyrazol-4-yl)quinazolin-6-yl)-2-methyltetrahydrofuran-2-carboxamide] | 2.6 nM | 4.2 nM | 1.1 nM
5 | COc1cc2ncnc(-c3c[nH]nc3-c3ccccc3)c2nc1NC(=O)C1(C(F)(F)F)CC1 [Example 372, N-(7-methoxy-4-(3-phenyl-1H-pyrazol-4-yl)pyrido[3,2-d]pyrimidin-6-yl)-1-(trifluoromethyl)cyclopropane-1-carboxamide] | 1.6 nM | 1.5 nM | 0.7 nM
6 | COc1cc2ncnc(-c3cn(CC(F)F)nc3-c3ccccc3)c2nc1NC(=O)[C@@]12C[C@@H]1CN(C)C2 (single isomer, unassigned) [Example 397, (1R,5R)—N-(4-(1-(2,2-difluoroethyl)-3-phenyl-1H-pyrazol-4-yl)-7-methoxypyrido[3,2-d]pyrimidin-6-yl)-3-methyl-3-azabicyclo[3.1.0]hexane-1-carboxamide or (1S,5S)—N-(4-(1-(2,2-difluoroethyl)-3-phenyl-1H-pyrazol-4-yl)-7-methoxypyrido[3,2-d]pyrimidin-6-yl)-3-methyl-3-azabicyclo[3.1.0]hexane-1-carboxamide] | 2.3 nM | 1.6 nM | 1 nM
7 | COc1cc2ncnc(-c3cn(C4COC4)nc3-c3ccccc3)c2cc1OC(=O)N1CCN(C)C[C@@H]1C [Example 69, 7-methoxy-4-(1-(oxetan-3-yl)-3-phenyl-1H-pyrazol-4-yl)quinazolin-6-yl (S)-2,4-dimethylpiperazine-1-carboxylate] | 7.1 nM | 5.8 nM | 3.1 nM
